Read-outs that look alike come from different tables or passages of the source.
Tests used:
[1] = after oral administration; cited from earlier work
rats = details: cited from earlier work
[2] = Stability on addition of 0.1 molar sodium bicarbonate (precipitate formation); type: physicochemical
Method: (§1) A 10 ml portion was diluted with 200 ml of a 0.1 molar solution of sodium bicarbonate. […] An additional 600 ml of 0.1 molar sodium bicarbonate solution was added.
(§2) A 10 ml portion was diluted with 200 ml of a 0.1 molar solution of sodium bicarbonate.
as §2

[3] = pH of aqueous solution of the complex; type: physicochemical; details: 0.1 molar in water
Method: as §1, §2, §2

[4] = test system: periparturient dairy cows
Description: The effects of supplementation with chromium in the form of chromium tri-L-methionine hydrochloride on performance of periparturient dairy cows were studied. Seventy-two cows were used to determine whether milk production and dry matter intake were affected by chromium tri-L-methionine hydrochloride supplementation of the diet during the periparturient period. Cows were fed either a diet high in nonforage fiber sources or high in non-fiber carbohydrates from day 21 before expected parturition until parturition and then fed a common lactating diet. Chromium tri-L-methionine hydrochloride was supplemented once daily via gelcap at doses of 0, 0.03, or 0.06 mg Cr/kg of metabolic body weight. Chromium supplementation began on day 21 before expected parturition and continued until day 28 postpartum. Cows were milked after calving according to established procedures. Feed intake was recorded daily for each cow throughout the experiment. Samples of the diet were obtained weekly and the dry matter contents were determined. Individual milk weights were recorded at each milking during the lactating phase of the experiment. Milk samples were taken from all milkings during one 24-hours period each week, composited based on the amount of milk produced at each milking, and analyzed for fat, protein, lactose, and total solids.

rat [5] = test system: rat
Method: Fifty 6 weeks old rats were used in the study (25 females and 25 males). Their body weight ranged from 130 to 220 g for males and 120-190 g for females. The animals were housed in polycarbonate cages over dust-free sawdust bedding in groups of five. The cages were placed in an air-conditioned room at 22° C. and 55% relative humidity. Rats were fed pelleted complete diet ad libitum. Animals were fasted overnight before dosing and given food 3-4 hours after dosing. Animals given water ad libitum. Animals were assigned at random to one of five treatments. Two groups of five animals each, one group of males and one group of females were assigned to each treatment. The treatments were control, 250 mg/kg, 500 mg/kg, 1000 mg/kg and 2000 mg/kg doses. A solution of the compound in water was administered in a single oral dose by gastric gavage. Animals were maintained for a 14-day observation period after receiving the dose. Surviving animals were killed on day 14. The weight of animals were recorded immediately before treatment, twice weekly for the study period and at death.

[6] = test system: rat isolated adipose tissue; details: cited from earlier work
[7] = cited from earlier work
[8] = test system: Chinese hamster ovary cells; details: cited from earlier work
rat [9] = details: added to rat diet; cited from earlier work
Humans = details: dietary supplementation, males and females; cited from earlier work
[10] = test system: rat skeletal muscle cultures; details: rat skeletal muscle cultures in vitro; cited from earlier work
DNA = details: cited from earlier work
[11] = slightly more than 2 equivalents of 0.1 molar sodium bicarbonate to a 0.1M solution
[12] = 10 ml of 0.1 molar solution + 200 ml 0.1 molar sodium bicarbonate (20 molar equivalents)
[13] = additional 600 ml 0.1 molar sodium bicarbonate (80 molar equivalents in all)

Molecule: CC(=O)/C=C(/C)[O-].CC(=O)/C=C(/C)[O-].CC(=O)/C=C(/C)[O-].[Cr+3] [Chromium Acetylacetonate]
- absorption from the gastrointestinal tract [1]: rapidly absorbed

Molecule: [Cl][Cr]([Cl])[Cl] [chromium chloride, reference compound]
- toxicity in rats (rats; rats): lack of toxicity
- pH of the mixture [2, 11]: 4.356
- precipitate formation [2, 11]: voluminous precipitate

Molecule: Chromium (III) Tri-leucinate Hydrochloride [Example 2]
- pH of a 0.1 molar solution in water [3]: 3.996
- pH of the solution after sodium bicarbonate [2, 12]: 7.987
- precipitate formation [2, 12]: No precipitate was formed

Molecule: Chromium (III) Tri-methionate Hydrochloride [Example 1]
- % Milk Fat ([4]; 0.03 mg/kg BW^.75): 4.41%
- % Milk Lactose ([4]; 0.03 mg/kg BW^.75): 4.69%
- % Milk Protein ([4]; 0.03 mg/kg BW^.75): 3.37%
- % Milk Solids ([4]; 0.03 mg/kg BW^.75): 13.39%
- Milk Fat ([4]; 0.03 mg/kg BW^.75): 1.76 kg/day
- Milk Lactose ([4]; 0.03 mg/kg BW^.75): 1.91 kg/day
- Milk Production ([4]; 0.03 mg/kg BW^.75): 40.6 kg/day
- Milk Protein ([4]; 0.03 mg/kg BW^.75): 1.33 kg/day
- Milk Solids ([4]; 0.03 mg/kg BW^.75): 5.37 kg/day
- Postpartum Dry Matter Intake ([4]; 0.03 mg/kg BW^.75): 18.9 kg/day
- Prepartum Dry Matter Intake ([4]; 0.03 mg/kg BW^.75): 13.9 kg/day
- % Milk Fat ([4]; 0.06 mg/kg BW^.75): 4.33%
- % Milk Lactose ([4]; 0.06 mg/kg BW^.75): 4.61%
- % Milk Protein ([4]; 0.06 mg/kg BW^.75): 3.15%
- % Milk Solids ([4]; 0.06 mg/kg BW^.75): 13.03%
- Milk Fat ([4]; 0.06 mg/kg BW^.75): 1.81 kg/day
- Milk Lactose ([4]; 0.06 mg/kg BW^.75): 1.98 kg/day
- Milk Production ([4]; 0.06 mg/kg BW^.75): 42.8 kg/day
- Milk Protein ([4]; 0.06 mg/kg BW^.75): 1.31 kg/day
- Milk Solids ([4]; 0.06 mg/kg BW^.75): 5.51 kg/day
- Postpartum Dry Matter Intake ([4]; 0.06 mg/kg BW^.75): 19.4 kg/day
- Prepartum Dry Matter Intake ([4]; 0.06 mg/kg BW^.75): 13.7 kg/day
- effect on dry matter intake in cows ([4]; diet supplementation, 0.03 or 0.06 mg Cr/kg metabolic body weight): did not affect
- body weight gain (rat [5]; 2000 mg/kg dose, 4000 folds the recommended dose): slight decrease
- food consumption compared to control (rat [5]; 1000 and 2000 mg/kg doses): dose related decrease
- gain in body weight (rat [5]; dose 2000 folds the recommended dose): not associated with a decrease
- toxicity in rats (rat [5]; doses used / high doses): non-toxic
- decrease in body weight gain (rat [5]; male rats, 2000 mg/kg single oral dose): 5%
- macroscopic abnormalities at necropsy (rat [5]; necropsied on day 14 after the oral dose): no macroscopic abnormalities
- mortality (rat [5]; single oral dose 250-2000 mg/kg, 14-day observation): No animals died
- treatment-related clinical signs (rat [5]; single oral dose, any of the dose levels (250-2000 mg/kg)): no treatment-related clinical signs
- toxicity (rat [5]; single oral dose, dose levels 1000 folds the recommended dose in pigs): did not induce any toxicity
- pH of a 0.1 molar solution in water [3]: 4.078
- pH of the solution after sodium bicarbonate [2, 12]: 8.097
- precipitate formation [2, 12]: No precipitate was formed
- pH of the solution after sodium bicarbonate [2, 13]: 8.354
- precipitate formation [2, 13]: No precipitate was formed

Molecule: chromium dinicotinate
- insulin activity [6]: potentiated

Molecule: chromium picolinate
- water solubility [7]: limited
- chromosome damage [8]: produces chromosome damage
- glycation of hemoglobin (rat [9]): prevented
- plasma glucose (rat [9]): significant decrease
- lean body mass (Humans): significant increase
- glucose uptake [10]: increased
- toxicity in rats (rats; rat, in vivo): lack of toxicity
- DNA cleavage (DNA): cleaves DNA

Reference: US7445803B2, “Chromium (III) alpha amino acid complexes” (priority 2002, dated 2008)
